Assay [1] has as its target T1, SpCas9 (Streptococcus pyogenes serotype M1, UniProt Q99ZW2). Nature of the assay: eGFP disruption assay, SpCas9, U2OS.eGFP.PEST cells. In kind it is cell-based. The following applies: for Normalized Z rep1 / Z score Rep1: replicate 1; for SpCas9 eGFP disruption Rep1: replicate 1, raw readout; for Normalized Z rep2 / Z socre Rep2: replicate 2; for SpCas9 eGFP disruption Rep2: replicate 2, raw readout. The text has this:
In some embodiments, the secondary assay may be an EGFP disruption assay. In such assay, a quantitative human cell-based reporter assay that enables rapid quantitation of targeted nuclease activities is used to characterize off-target cleavage of Cas9-based RNA guided endonucleases. In this assay, the activities of nucleases targeted to a single integrated EGFP reporter gene can be quantified by assessing loss of fluorescence signal in human U2OS.EGFP cells caused by inactivating frameshift insertion/deletion (indel) mutations introduced by error prone non-homologous end-joining (NHEJ) repair of nuclease-induced double-stranded breaks (DSBs).
In one protocol, U2OS.EGFP cells harboring a single integrated copy of an EGFP-PEST fusion gene are cultured (see e.g., Reyon et al., Nat Biotech 30, 460-465 (2012), which is herein incorporated by reference in its entirety). For transfections, 200,000 cells are Nucleofected with gRNA expression plasmid and pJDS246 together with 30 ng of a Td-tomato-encoding plasmid using the SE Cell Line 4D-Nucleofector™ X Kit (Lonza) according to the manufacturer's protocol. Cells are analyzed 2 days post-transfection using a BD LSRII flow cytometer. Transfections for optimizing gRNA/Cas9 plasmid concentration are performed in triplicate and all other transfections are performed in duplicate. PCR amplification is used for sequence verification of endogenous human genomic sites. PCR reactions are performed using Phusion Hot Start II high-fidelity DNA polymerase (NEB). Loci are amplified using touchdown PCR (98° C., 10 s; 72-62° C., −1° C./cycle, 15s; 72° C., 30 s] 10 cycles, [98° C., 10s; 62° C., 15s; 72° C., 30 s] 25 cycles). Alternatively, PCR for other targets is performed with 35 cycles at a constant annealing temperature of 68° C. or 72° C., and 3% DMSO or IM betaine, if necessary. PCR products are analyzed on a QIAXCEL capillary electrophoresis system to verify both size and purity. Validated products are treated with ExoSap-IT (Affymetrix) and sequenced by the Sanger method (MGH DNA Sequencing Core) to verify each target site.
Primary and secondary screening. The primary screen assayed a selection of unique chemical scaffolds derived from commercially available compounds and known bioactive molecular libraries (Table 7). Auto-fluorescent compounds were removed by a counter screen. Overall, the CAA was used to assay 122,409 small molecules with over 2,500 unique chemical scaffolds (FIG. 64F, Table 7). Of these compounds, 547 were selected as hits (Z score >3 in both replicates) for testing in orthogonal cell-based secondary assays. Hits were tested in duplicate in an eGFP disruption assay, wherein U2OS.eGFP.PEST cells^33 transfected with SpCas9 plasmid and eGFP-targeting gRNA plasmid were incubated with 20 μM of the compounds. In this assay, any compound that inhibited SpCas9 would rescue the loss of eGFP fluorescence. Here, toxic and auto-fluorescent compounds with a high GFP signal in cells were removed as false positives. […] Next, Applicants tested the 15 compounds in a luminescence-based gain-of-signal HiBiT knock-in assay, which involves SpCas9-mediated homology-directed tagging of GAPDH with a short peptide that luminesces upon complementation with a subunit derived from nanoluciferase.^34 Complementarily, the eGFP-disruption assay is fluorescence-based and involves error-prone DNA repair. As a counter-screen to remove false positives caused by cell death (viability <80%), the cell viability was measured after incubation.
For SAR studies and dose-response studies, 300,000 U2OS.eGFP.PEST cells were nucleofected with 300 ng of SpCas9 plasmid (Addgene #43861) and 30 ng of eGFP-targeting gRNA plasmid (Addgene #47511)^33 using SE Cell Line 4D-Nucleofector X Kit (Lonza) following the pulse program of DN-100. For RNP-based genome editing, 10 pmol of SpCas9 (GenScript #Z03385) and 12 pmol of gRNA were mixed and incubated for 5 min. […]

In assay [2] the target is T1, SpCas9. Nature of the assay: Strand displacement assay (SDA) / cumulative activity assay (CAA), SpCas9 primary screen. In kind it is biochemical. The following applies: Primary Screen (150 min); for Normalized Z score 1: replicate 1; for Normalized Z score 2: replicate 2. As to the method:
Screening of inhibitors was via a high throughput pipeline, as depicted in FIG. 29. The first screening is via a strand displacement assay (SDA) for detecting nuclease activity (FIG. 27A, 28A). The Cpf1/Cas12 protein/DNA complex has a different structure from Cas9 and requires optimization of the potential fluorophore attachment sites (Yamano, T et al., Cell, 2016). (FIG. 28A). Next screened compounds are evaluated in an eGFP cell assay, and for eGFP dose. Those compounds are further narrowed via a HiBiT assay and finally evaluated in the surveyor assay. SAR evaluations are performed to arrive at lead compounds for further evaluations and variations. General methodology for the assays is as described in at [0253]-[0301] of U.S. Patent Application 62/831,143 filed Apr. 8, 2019, incorporated herein by reference.
The 3′ end of the displacing single-stranded DNA was labeled with a quencher. Following nuclease cleavage of the substrate, the 3′-labeled quenching DNA strand (present in excess) could outcompete the weakly held 3′ strand to anneal to the 5′ strand. The resulting FRET fluorescence quenching provides an optical readout for nuclease activity (FIG. 62A).
Typically, SpCas9: gRNA (1:1.2 ratio) RNP was pre-formed at 1 μM in Cas9 assay buffer (20 mM Tris-HCl, pH=7.5, 100 mM KCl, 5 mM MgCl2) for 5 min at 4° C. before diluting to 10 nM in Cas9 assay buffer (2× final concentration). 25 μL of the Cas9 2× stock was manually dispensed to a black 384-well plate (Corning 3575) using electronic pipette. […] Following this, pre-annealed Alexa-Fluor 647 labeled substrate and quencher were also diluted to 1 nM and 5 nM in Cas9 assay buffer, respectively (2× stock solution). Next, 25 μL of the substrate/quencher solution was added manually to each well of the Cas9-containing 384-well plates using an electronic pipette and was incubated at 37° C. for 2.5 h. Fluorescent signals were read with the microplate reader set to read Alexa-Fluor 647 fluorescence. Assay was performed similarly with SaCas9 and FnCas12a using the respective enzyme, gRNA, substrate, and quencher oligos. […]

T1 sequence (Q99ZW2 whole entry): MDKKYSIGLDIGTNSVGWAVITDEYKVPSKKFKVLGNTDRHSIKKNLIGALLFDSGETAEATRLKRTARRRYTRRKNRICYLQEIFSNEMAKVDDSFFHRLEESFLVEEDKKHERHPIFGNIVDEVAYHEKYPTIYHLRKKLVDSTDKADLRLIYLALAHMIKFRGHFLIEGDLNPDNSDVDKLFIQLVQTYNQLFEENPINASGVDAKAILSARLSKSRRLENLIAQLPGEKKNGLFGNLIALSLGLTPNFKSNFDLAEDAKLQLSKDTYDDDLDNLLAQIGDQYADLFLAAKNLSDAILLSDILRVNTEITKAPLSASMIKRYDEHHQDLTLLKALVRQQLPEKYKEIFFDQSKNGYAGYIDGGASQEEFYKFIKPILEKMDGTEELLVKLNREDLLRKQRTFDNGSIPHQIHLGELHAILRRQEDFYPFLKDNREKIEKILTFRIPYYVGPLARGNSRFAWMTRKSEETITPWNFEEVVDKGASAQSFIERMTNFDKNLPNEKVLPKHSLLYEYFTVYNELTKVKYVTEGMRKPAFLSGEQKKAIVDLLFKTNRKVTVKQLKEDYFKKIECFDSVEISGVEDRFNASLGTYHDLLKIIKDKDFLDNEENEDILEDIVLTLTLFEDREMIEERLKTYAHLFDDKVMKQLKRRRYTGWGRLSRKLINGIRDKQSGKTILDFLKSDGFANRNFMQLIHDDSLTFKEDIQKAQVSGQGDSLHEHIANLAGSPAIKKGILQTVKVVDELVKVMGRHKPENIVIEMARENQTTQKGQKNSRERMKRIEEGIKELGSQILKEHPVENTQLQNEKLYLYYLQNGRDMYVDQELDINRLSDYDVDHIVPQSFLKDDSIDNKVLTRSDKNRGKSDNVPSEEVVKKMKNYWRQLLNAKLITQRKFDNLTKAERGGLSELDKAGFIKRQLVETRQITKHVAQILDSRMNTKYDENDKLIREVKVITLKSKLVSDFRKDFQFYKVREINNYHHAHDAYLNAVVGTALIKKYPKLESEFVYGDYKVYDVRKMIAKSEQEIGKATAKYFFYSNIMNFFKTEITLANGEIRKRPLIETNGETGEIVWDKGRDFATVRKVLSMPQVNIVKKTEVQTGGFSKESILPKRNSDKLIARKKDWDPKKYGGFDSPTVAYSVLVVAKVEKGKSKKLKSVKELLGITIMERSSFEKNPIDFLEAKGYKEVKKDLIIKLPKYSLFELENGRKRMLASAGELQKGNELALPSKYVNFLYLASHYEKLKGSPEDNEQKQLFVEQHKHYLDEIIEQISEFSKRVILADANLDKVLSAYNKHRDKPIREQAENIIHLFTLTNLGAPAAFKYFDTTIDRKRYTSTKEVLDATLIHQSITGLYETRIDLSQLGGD

Turning to `CCn1c(=O)c(C(=O)Nc2nccc(C)n2)c(O)c2ccccc21` [Compound G650-0193], in assay [1], the “Normalized Z rep1” value is recorded as −0.05, the “Z score Rep1” value was −0.45, the “SpCas9 eGFP disruption Rep1” value was 63.431 and the “Normalized Z rep2” value is given as −0.43. Further, in assay [1], the “Z socre Rep2” value is recorded as −6.43 and the “SpCas9 eGFP disruption Rep2” value stood at 55.676. In addition, in assay [2], the “Average Normalized Z score” value is reported as 0.21, the “avg z score primary” value is reported as 11.65, the “Normalized Z score 1” value is reported as 0.19 and the “Normalized Z score 2” value amounted to 0.23.
`Cn1nc(-c2ccccc2F)c2cc(C(=O)Oc3ccc4cnccc4c3)sc21` [Compound G784-0099]: in assay [1], the “Normalized Z rep1” value is reported as −0.35, the “Z score Rep1” value was −3.62, the “SpCas9 eGFP disruption Rep1” value is on record as 69.21 and the “Normalized Z rep2” value was 0.01. For the same compound, in assay [1], the “Z socre Rep2” value stood at 0.21 and the “SpCas9 eGFP disruption Rep2” value is on record as 76.066. In assay [2], the “Average Normalized Z score” value is listed as 0.07, the “avg z score primary” value came out at 7.48, the “Normalized Z score 1” value was 0.06 and the “Normalized Z score 2” value is recorded as 0.09.
For the compound `O=C(Nc1nc(-c2ccccc2)c(C(=O)c2ccccc2)s1)c1ccc2c(c1)OCCO2` [Compound G786-0335], in assay [1], the “Normalized Z rep1” value is −0.08, the “Z score Rep1” value was −0.79, the “SpCas9 eGFP disruption Rep1” value is reported as 74.347 and the “Normalized Z rep2” value is 0.09. Further, in assay [1], the “Z socre Rep2” value worked out at 2.13 and the “SpCas9 eGFP disruption Rep2” value was found to be 77.667. In assay [2], the “Average Normalized Z score” value came to 0.04, the “avg z score primary” value was 4.14, the “Normalized Z score 1” value was found to be 0.04 and the “Normalized Z score 2” value was determined as 0.04.
Take `CNS(=O)(=O)c1ccc2nc(NC(=O)c3ccc(N4C(=O)CCC4=O)cc3)sc2c1` [Compound G786-1562]: in assay [1], the “Normalized Z rep1” value is on record as −0.26, the “Z score Rep1” value is −2.41, the “SpCas9 eGFP disruption Rep1” value turned out to be 57.872 and the “Normalized Z rep2” value is given as −0.25. Further, in assay [1], the “Z socre Rep2” value is −3.72 and the “SpCas9 eGFP disruption Rep2” value worked out at 60.132. Also, in assay [2], the “Average Normalized Z score” value was 0.06, the “avg z score primary” value was 6.00, the “Normalized Z score 1” value was 0.05 and the “Normalized Z score 2” value is recorded as 0.07.
Consider `O=C(O)c1cccc(NCC2SC(=S)NC2=O)c1` (centres unmarked) [Compound T0514-3358], for which, in assay [2], the “avg z score primary” value was 4.79, the “Normalized Z score 1” value is reported as 0.32 and the “Normalized Z score 2” value is 0.27. Moreover, the “Average Normalized Z score” value in assay [2] (average of replicates) is recorded as 0.30.
Regarding `Oc1c(C(c2cccs2)N2CCCCC2)ccc2cccnc12` (centres unmarked) [Compound T0515-1927], in assay [2], the “avg z score primary” value is reported as 10.34, the “Normalized Z score 1” value was found to be 0.70 and the “Normalized Z score 2” value is reported as 0.67. The “Average Normalized Z score” value in assay [2] (average of replicates) is listed as 0.68.
As for `O=C(COC(=O)c1cc(O)c(O)c(O)c1)NC1CCCc2ccccc21` (centres unmarked) [Compound T0515-9025], in assay [2], the “avg z score primary” value came out at 4.00, the “Normalized Z score 1” value amounted to 0.26 and the “Normalized Z score 2” value is given as 0.23. Besides, the “Average Normalized Z score” value in assay [2] (average of replicates) stood at 0.25.
On to `Cc1ccc(Cl)cc1NC(=O)C1=NCCN1` [Compound T0519-9012], for which, in assay [2], the “avg z score primary” value is listed as 5.06, the “Normalized Z score 1” value is 0.08 and the “Normalized Z score 2” value was 0.12. In addition, the “Average Normalized Z score” value in assay [2] (average of replicates) came out at 0.10.
With `Cc1sc2nc3n(c(=O)c2c1-c1ccccc1)CCC3` [Compound T0520-0462], in assay [2], the “avg z score primary” value stood at 4.18, the “Normalized Z score 1” value was found to be 0.04 and the “Normalized Z score 2” value turned out to be 0.05. Moreover, the “Average Normalized Z score” value in assay [2] (average of replicates) turned out to be 0.04.
As to `O=C(O)CSc1nnc(NC2CCCCC2)s1` [Compound T5211003], in assay [2], the “avg z score primary” value is reported as 4.50, the “Normalized Z score 1” value worked out at 0.05 and the “Normalized Z score 2” value amounted to 0.05. The “Average Normalized Z score” value in assay [2] (average of replicates) amounted to 0.05.
As to `NC(=S)c1ccccn1` [Compound T5211106], in assay [2], the “avg z score primary” value was 3.58, the “Normalized Z score 1” value amounted to 0.04 and the “Normalized Z score 2” value was determined as 0.04. Also, in assay [2] (average of replicates), the “Average Normalized Z score” value was determined as 0.04.
For `CCc1ccc(NC(=O)C(C#N)=Cc2cc(C#N)n(C)c2C)cc1` [Compound T5229649], in assay [2], the “avg z score primary” value is 4.90, the “Normalized Z score 1” value was 0.06 and the “Normalized Z score 2” value came to 0.08. In addition, the “Average Normalized Z score” value in assay [2] (average of replicates) is listed as 0.07.
With `N=C1N=CC(=NNc2cc(C(=O)O)ccc2Cl)S1` [Compound T5253378], in assay [2], the “avg z score primary” value was 4.20, the “Normalized Z score 1” value stood at 0.08 and the “Normalized Z score 2” value came out at 0.07. For the same compound, the “Average Normalized Z score” value in assay [2] (average of replicates) is recorded as 0.07.
As for `CCC(CC)NC(=O)c1ccc2ncsc2c1` [Compound T5324509], in assay [2], the “avg z score primary” value came to 7.80, the “Normalized Z score 1” value was 0.12 and the “Normalized Z score 2” value is given as 0.09. Also, in assay [2] (average of replicates), the “Average Normalized Z score” value stood at 0.10.
The like results for `Cn1cccc1/C=C\C(=O)O` [Compound T5365031] were, in that order, 4.17, 0.27, 0.28 and 0.28.
`O=C1NC(=S)C(=C2CCCC2)S1` [Compound T5441809]: in assay [2], the “avg z score primary” value came to 22.96, the “Normalized Z score 1” value is reported as 0.27 and the “Normalized Z score 2” value came out at 0.24. In assay [2] (average of replicates), the “Average Normalized Z score” value came to 0.26.
`O=C(O)C(S)=C/C=C\c1ccccc1` [Compound T5441826]: in assay [2], the “avg z score primary” value was 4.20, the “Normalized Z score 1” value worked out at 0.03 and the “Normalized Z score 2” value worked out at 0.06. The “Average Normalized Z score” value in assay [2] (average of replicates) is given as 0.05.

The values above are taken from US20240115557A1, “INHIBITORS OF RNA-GUIDED NUCLEASES AND USES THEREOF” (The Brigham and Women's Hospital, Inc., priority 2022, published 2024).
